Measured values as given in ChEMBL document CHEMBL1141197, “Interaction of papain-like cysteine proteases with dipeptide-derived nitriles” (J Med Chem, 2005).
Where a SMILES comes first, the peptide text is derived from it. The star is where a group is joined. Boc = CC(C)(C)OC(=O)*

Columns and labels:
Cathepsin S = Cathepsin S (Homo sapiens, UniProt P25774); assay: Inhibitory activity against human cathepsin S using Z-Val-Val-Arg-NHMec substrate
Cathepsin K = molecular target: T1, Cathepsin K (Homo sapiens, UniProt P43235); assay: Inhibitory activity against human cathepsin K using Z-Leu-Arg-NHMec substrate
T1 sequence (P43235 whole entry): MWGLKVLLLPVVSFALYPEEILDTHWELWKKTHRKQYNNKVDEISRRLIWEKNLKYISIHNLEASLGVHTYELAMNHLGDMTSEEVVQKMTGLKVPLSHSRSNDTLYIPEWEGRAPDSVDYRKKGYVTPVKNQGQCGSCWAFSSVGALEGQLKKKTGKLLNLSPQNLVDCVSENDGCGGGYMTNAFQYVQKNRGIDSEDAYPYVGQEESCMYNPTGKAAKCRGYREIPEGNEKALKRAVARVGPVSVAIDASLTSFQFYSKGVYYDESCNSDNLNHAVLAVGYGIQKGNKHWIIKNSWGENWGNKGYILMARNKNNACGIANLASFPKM

Procathepsin L [1] = molecular target: Procathepsin L (Bos taurus, UniProt P25975); assay: Inhibitory activity against bovine cathepsin L using Z-Phe-Arg-NHMec substrate
Chain of Procathepsin L (Bos taurus, UniProt P25975) (P25975 whole entry): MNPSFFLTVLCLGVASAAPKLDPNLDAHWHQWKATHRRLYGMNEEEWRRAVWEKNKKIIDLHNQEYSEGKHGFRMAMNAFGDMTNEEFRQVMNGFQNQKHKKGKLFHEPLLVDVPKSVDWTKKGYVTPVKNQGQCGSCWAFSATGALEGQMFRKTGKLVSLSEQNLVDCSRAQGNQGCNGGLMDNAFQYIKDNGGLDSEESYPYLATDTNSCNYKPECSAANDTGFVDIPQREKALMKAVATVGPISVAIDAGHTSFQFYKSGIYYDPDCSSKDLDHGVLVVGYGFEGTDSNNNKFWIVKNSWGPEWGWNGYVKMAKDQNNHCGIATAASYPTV

Papain = molecular target: T2, Papain (Carica papaya, UniProt P00784); assay: Inhibitory activity against papain using Z-Phe-Arg-NHNp substrate
T2 sequence (P00784 whole entry): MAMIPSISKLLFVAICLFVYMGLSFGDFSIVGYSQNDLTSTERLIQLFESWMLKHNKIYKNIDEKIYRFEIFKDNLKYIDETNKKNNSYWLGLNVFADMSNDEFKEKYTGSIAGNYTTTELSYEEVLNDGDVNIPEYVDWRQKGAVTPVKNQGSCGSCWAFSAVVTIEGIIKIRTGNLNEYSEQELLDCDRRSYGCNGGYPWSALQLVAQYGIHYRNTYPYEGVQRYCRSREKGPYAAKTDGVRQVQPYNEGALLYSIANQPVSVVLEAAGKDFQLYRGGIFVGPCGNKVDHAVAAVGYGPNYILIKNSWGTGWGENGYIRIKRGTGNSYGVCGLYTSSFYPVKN

Procathepsin L [2] = molecular target: Procathepsin L (Homo sapiens, UniProt P07711); assay: Inhibitory activity against human cathepsin L using Z-Phe-Arg-NHMec substrate
Chain of Procathepsin L (Homo sapiens, UniProt P07711) (P07711 whole entry): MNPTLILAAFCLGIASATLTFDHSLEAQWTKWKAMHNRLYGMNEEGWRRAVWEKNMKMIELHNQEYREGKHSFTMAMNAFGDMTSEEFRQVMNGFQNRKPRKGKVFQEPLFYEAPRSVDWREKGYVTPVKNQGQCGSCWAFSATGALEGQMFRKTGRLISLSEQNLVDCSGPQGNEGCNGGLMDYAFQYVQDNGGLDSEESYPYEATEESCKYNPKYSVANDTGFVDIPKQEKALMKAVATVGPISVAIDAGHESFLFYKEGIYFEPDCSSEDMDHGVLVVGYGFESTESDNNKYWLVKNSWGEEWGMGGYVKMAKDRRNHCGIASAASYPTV

Chain of Cathepsin S (P25774 whole entry): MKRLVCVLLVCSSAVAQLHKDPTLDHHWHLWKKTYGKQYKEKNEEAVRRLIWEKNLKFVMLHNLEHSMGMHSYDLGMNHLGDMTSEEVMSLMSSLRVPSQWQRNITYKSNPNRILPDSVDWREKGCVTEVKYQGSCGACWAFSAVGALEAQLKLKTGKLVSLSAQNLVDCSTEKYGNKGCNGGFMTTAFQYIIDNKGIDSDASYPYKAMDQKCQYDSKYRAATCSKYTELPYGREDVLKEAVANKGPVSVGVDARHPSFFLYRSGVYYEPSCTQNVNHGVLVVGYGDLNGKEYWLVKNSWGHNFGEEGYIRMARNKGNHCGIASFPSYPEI

| Compound | Ki (Cathepsin S) | Ki (Cathepsin K) | Ki (Procathepsin L [1]) | Ki (Papain) | Ki (Procathepsin L [2]) |
| --- | --- | --- | --- | --- | --- |
| CC(C)(C)OC(=O)N[C@@H](Cc1cccs1)C(=O)NCC#N | 0.27 µM | 1.2 µM | 1.6 µM | 0.19 µM | – |
| CC[C@H](NC(=O)OC(C)(C)C)C(=O)NCC#N | 28 µM | 5 µM | > 100 µM | 5.4 µM | – |
| CC(C)(C)OC(=O)N[C@@H](Cc1ccc(O)cc1)C(=O)NCC#N | 0.97 µM | 30 µM | 0.4 µM | 0.19 µM | – |
| CC(C)(C)OC(=O)NN(Cc1ccccc1)C(=O)NCC#N | > 50 µM | > 100 µM | > 100 µM | 725 µM | – |
| CC(C)[C@H](NC(=O)OC(C)(C)C)C(=O)NCC#N | 6.2 µM | 6.5 µM | 2.8 µM | 2 µM | – |
| CC(C)(C)OC(=O)NCC(=O)NCC#N | > 1000 µM | > 1000 µM | > 1000 µM | > 3000 µM | – |
| CC(C)(C)OC(=O)N[C@@H](Cc1ccccc1)C(=O)NCC=O (Boc-Phe-Gly-aldehyde) | 0.025 µM | 0.074 µM | 0.022 µM | 0.015 µM | – |
| CC(C)(C)OC(=O)N[C@@H](Cc1c(F)c(F)c(F)c(F)c1F)C(=O)NCC#N | 15 µM | > 100 µM | 2.5 µM | 14 µM | – |
| CC(C)(C)OC(=O)N[C@@H](Cc1csc2ccccc12)C(=O)NCC#N | 0.3 µM | 34 µM | 0.32 µM | 7.4 µM | 0.29 µM |
| CC(C)(C)OC(=O)N[C@@H](Cc1cccc(Br)c1)C(=O)NCC#N | 0.34 µM | 6.5 µM | 0.27 µM | 0.33 µM | – |
| CSCC[C@H](NC(=O)OC(C)(C)C)C(=O)NCC#N | 0.66 µM | 0.73 µM | 19 µM | 0.65 µM | – |
| CC(C)(C)OC(=O)N[C@@H](Cc1cccc(F)c1)C(=O)NCC#N | 0.86 µM | 6.3 µM | 0.7 µM | 0.5 µM | – |
| CC(C)(C)OC(=O)N1CCC[C@H]1C(=O)NCC#N | > 100 µM | > 100 µM | > 100 µM | 537 µM | – |
| CC(C)(C)OC(=O)N[C@@H](Cc1ccc2ccccc2c1)C(=O)NCC#N | 0.083 µM | 83 µM | 0.12 µM | 0.021 µM | – |
| N#CCNC(=O)[C@H](Cc1ccccc1)NC(=O)c1ccc(-c2ccccc2)cc1 | 0.24 µM | 0.3 µM | 0.55 µM | 0.016 µM | – |
| CC(C)(C)OC(=O)N[C@@H](CC1CC1)C(=O)NCC#N | 0.65 µM | 3.3 µM | 47 µM | 13 µM | – |
| CC(C)(C)OC(=O)N[C@@H](Cc1ccccc1-c1ccccc1)C(=O)NCC#N | > 100 µM | > 100 µM | > 100 µM | 299 µM | – |
| C[C@H](NC(=O)OC(C)(C)C)C(=O)NCC#N | 292 µM | 136 µM | > 100 µM | 22 µM | – |
| C=CCNC(=O)[C@H](Cc1ccccc1)NC(=O)OC(C)(C)C | > 100 µM | > 1000 µM | > 1000 µM | 497 µM | – |
| N#CCNC(=O)CNS(=O)(=O)c1ccc2ccccc2c1 | 2.5 µM | > 100 µM | 25 µM | 10 µM | – |
| CC(C)(C)OC(=O)N[C@@H](Cc1ccc(Br)cc1)C(=O)NCC#N | 0.19 µM | 28 µM | 0.63 µM | 0.029 µM | – |
| CC(C)(C)OC(=O)N[C@@H](Cc1c[nH]c2ccccc12)C(=O)NCC#N | 0.24 µM | 29 µM | 0.35 µM | 7.6 µM | 0.43 µM |
| CCCC[C@H](NC(=O)OC(C)(C)C)C(=O)NCC#N | 0.55 µM | 1.27 µM | 19 µM | 1.57 µM | – |
| CCC[C@H](NC(=O)OC(C)(C)C)C(=O)NCC#N | 0.9 µM | 1.1 µM | 22 µM | 0.75 µM | – |
| CC(C)(C)OC(=O)N[C@@H](CC1CCCCC1)C(=O)NCC#N | 0.044 µM | 5.3 µM | 1.1 µM | 2.2 µM | – |
| CC(C)(C)OC(=O)N[C@@H](Cc1ccco1)C(=O)NCC#N | 2.8 µM | 4.1 µM | 14 µM | 1.2 µM | – |
| CC[C@@H](C)[C@H](NC(=O)OC(C)(C)C)C(=O)NCC#N | 4.1 µM | 5.8 µM | 4.9 µM | 26 µM | – |
| CC(C)(C)OC(=O)N[C@@H](Cc1ccsc1)C(=O)NCC#N | 0.76 µM | 2.1 µM | 4.5 µM | 0.57 µM | – |
| CC(C)(C)OC(=O)N[C@@H](Cc1ccc(F)cc1)C(=O)NCC#N | 0.59 µM | 13 µM | 0.64 µM | 0.27 µM | – |
| CN(CC#N)C(=O)[C@H](Cc1ccccc1)NC(=O)OC(C)(C)C | > 100 µM | > 100 µM | > 100 µM | > 100 µM | – |

Other lines, results leading:

| Ki (Cathepsin S) | Ki (Cathepsin K) | Ki (Procathepsin L [1]) | Ki (Papain) | Ki (Procathepsin L [2]) | Compound |
| --- | --- | --- | --- | --- | --- |
| 0.077 µM | 1.5 µM | 0.23 µM | 0.062 µM | – | N#CCNC(=O)[C@H](Cc1ccccc1)NC(=O)c1ccccc1 |
| > 100 µM | > 1000 µM | > 1000 µM | 497 µM | – | C#CCNC(=O)[C@H](Cc1ccccc1)NC(=O)OC(C)(C)C |
| 46 µM | > 100 µM | – | 41 µM | – | CC(C)(C)OC(=O)N[C@H](Cc1ccccc1)C(=O)NCC#N |
| 0.61 µM | 4.2 µM | 1.1 µM | 0.46 µM | – | CC(C)(C)OC(=O)N[C@@H](Cc1ccccc1Br)C(=O)NCC#N |
| 0.13 µM | 0.12 µM | 1.2 µM | 2 µM | – | CC(C)C[C@H](NC(=O)OC(C)(C)C)C(=O)NCC#N |
| 0.13 µM | 0.035 µM | 0.75 µM | 3.1 µM | – | CC(C)C[C@H](NC(=O)OCc1ccccc1)C(=O)NCC#N |
| 2.1 µM | 2.1 µM | 2.3 µM | 187 µM | – | CC(=O)CNC(=O)[C@H](Cc1ccccc1)NC(=O)OC(C)(C)C |
| 0.27 µM | 26 µM | 0.43 µM | 1.2 µM | – | CC(C)(C)OC(=O)N[C@@H](Cc1cccc(-c2ccccc2)c1)C(=O)NCC#N |
| > 1000 µM | > 1000 µM | > 1000 µM | 1600 µM | – | N#CCNC(=O)CNC(=O)OCc1ccccc1 |
| 2.2 µM | > 100 µM | 33 µM | 11 µM | – | CC(C)(C)OC(=O)N[C@@H](COCc1ccccc1)C(=O)NCC#N |
| 0.51 µM | 0.26 µM | 0.18 µM | 0.36 µM | 0.23 µM | N#CCNC(=O)[C@H](Cc1ccccc1)NC(=O)OCc1ccccc1 |
| 1.9 µM | 8.5 µM | 9.4 µM | 12 µM | – | CC(C)(C)OC(=O)N[C@@H](CCc1ccccc1)C(=O)NCC#N |
| 1.3 µM | 66 µM | 1.7 µM | 28 µM | – | CC(C)(C)OC(=O)N[C@@H](Cc1cccc2ccccc12)C(=O)NCC#N |
| 1.7 µM | 90 µM | 29 µM | 83 µM | – | CC(C)(C)OC(=O)N[C@H](C(=O)NCC#N)c1ccccc1 |
| 0.62 µM | 4.1 µM | – | 0.26 µM | – | CC(C)(C)OC(=O)N[C@@H](Cc1ccccc1)C(=O)NCC#N |
| 0.44 µM | 16 µM | 0.34 µM | 0.016 µM | – | CC(C)(C)OC(=O)N[C@@H](Cc1ccc(-c2ccccc2)cc1)C(=O)NCC#N |
| 1.4 µM | 7.5 µM | 5.8 µM | 0.38 µM | – | CC(=O)N[C@@H](Cc1ccccc1)C(=O)NCC#N |
| 0.77 µM | 3.3 µM | 0.47 µM | 0.4 µM | – | CC(C)(C)OC(=O)N[C@@H](Cc1ccccc1F)C(=O)NCC#N |
